Where two headings read alike, the source gives them in different places.
Tested on: Human osteosarcoma U20S cells
Assay: Assay to measure lysosome and autolysosome formation (acidic vesicle formation, LysoView/LysoTracker staining)
Format: cell-based
Conditions: for acidic vesicle formation relative to a DMSO-treated control / increase in acidic vesicle formation: U20S cells; for acidic vesicle formation relative to a DMSO-treated control: concentration of 10 μM, 24 hours; for increase in acidic vesicle formation: relative to DMSO-treated control (10 μM); for activation at 0.8 µM: Homo sapiens
Protocol: Lysosomes play a fundamental role in the autophagic pathway by fusing with autophagosomes and creating ‘autolysosomes’ in order to digest their contents. Stimulation of lysosome and autolysosome formation by a compound is indicative of a stimulation of autophagy. The ability of compounds to stimulate lysosome and autolysosome formation, and thus autophagy, in live cells was assessed via fluorescent microscopy using various fluorescent stains for labelling and tracking acidic organelles (including lysosomes and autolysosomes) such as: LysoView™ 650 (70059 and 70059-T, Biotium), LysoViewTM633 (70058 and 70058-T, Biotium) and LysoTracker™ Deep Red (L12492, ThermoFisher Scientific). The cellular phenotype was quantitatively assessed for the induction of acidic vesicle formation and compared to a non-treated control, thus providing a measure of the ability of the compound under investigation to stimulate autophagy.
Representative procedure using LysoView™633 dye or LysoTracker™ Deep Red dye: Human osteosarcoma U20S cells (40,000 cells/well) were seeded in a 24 well glass bottom plate (Sensoplate, Greiner Bio-One) and were incubated overnight in a humidified atmosphere at 37° C. and 5% CO2. Cells were grown in DMEM (Gibco) supplemented with 10% Fetal Bovine Serum (FBS) and 100 units/ml penicillin and 100 μg/ml streptomycin (Invitrogen). After the attachment period, cells were treated with different compounds of interest (at various concentrations in DMSO) or DMSO (non-treated control) in cell culture medium and were incubated for 24 hours. Compound-containing medium was removed and cells were incubated with pre-warmed cell culture medium containing 1× LysoView™ 633 (70058 and 70058-T, Biotium) or 50 nM LysoTracker™ Deep Red (L12492, ThermoFisher Scientific) for 45 minutes at 37° C. Finally, cell nuclei were stained for 10 minutes using Hoechst 33342 (1 μg/mL) and then the medium was replaced with fresh medium. The 24 well plate was then fitted into a heated stage on the microscope and cells maintained at 37° C. Images were captured using appropriate filter set for Cy5 and DAPI detection with the EVOS M7000 Microscope (ThermoFisher Scientific). The cellular phenotype was visually assessed for the induction of acidic vesicle formation relative to the non-treated control; multiple images were acquired and analyzed using ImageJ or Cell Profiler.

[1] = U2OS cells, concentration of 0.8 μM, read-out: Activity (percentage increase in acidic vesicle formation over the DMSO-treated control), Table 2
[2] = U2OS cells, concentration of 0.8 μM, read-out: Activity (percentage increase in acidic vesicle formation), Table 2a Preferred compounds

Row | SMILES | activation at 0.8 µM [1] [%] | further results
1 | CC(C)N(C(=O)c1csc(-c2cnn(-c3ccccc3)c2)n1)C1C2CNCC1C2 (centres unmarked) [Compound 317, N-{3-azabicyclo[3.1.1]heptan-6-yl}-2-(1-phenyl-1H-pyrazol-4-yl)-N-(propan-2-yl)-1,3-thiazole-4-carboxamide] |  | acidic vesicle formation relative to a DMSO-treated control: only a slight increase; increase in acidic vesicle formation: only a slight increase
2 | NC1CCCN(C(=O)c2csc(-c3cnn(-c4ccccc4)c3)n2)C1 (centres unmarked) [Compound 167, 1-[2-(1-phenyl-1H-pyrazol-4-yl)-1,3-thiazole-4-carbonyl]piperidin-3-amine] | 10 to 30 | 
3 | O=C(NCC1CCNCC1)c1csc(-c2cnn(-c3ccccc3)c2)n1 [Compound 177, 2-(1-phenyl-1H-pyrazol-4-yl)-N-[(piperidin-4-yl)methyl]-1,3-thiazole-4-carboxamide] | 10 to 30 | 
4 | CCCN(C(=O)c1csc(-c2cnn(-c3ccc(C)cc3)c2)n1)[C@@H]1CCNC1 [Compound 65, 2-[1-(4-methylphenyl)-1H-pyrazol-4-yl]-N-propyl-N-[(3R)-pyrrolidin-3-yl]-1,3-thiazole-4-carboxamide] | 30 to 50 | 
5 | O=C(NCC1CCNCC1)c1ccc(-c2cnn(-c3ccccc3)c2)o1 [Compound 100, 5-(1-phenyl-1H-pyrazol-4-yl)-N-[(piperidin-4-yl)methyl]furan-2-carboxamide] | 30 to 50 | 
6 | CCCN(C(=O)c1cc(-c2cnn(-c3ccccc3)c2)cs1)C1CCNC1 (centres unmarked) [Compound 141, 4-(1-phenyl-1H-pyrazol-4-yl)-N-propyl-N-(pyrrolidin-3-yl)thiophene-2-carboxamide] | 50 to 100 | activation at 0.8 µM [2]: 50 to 100%
7 | CCCN(C(=O)c1csc(-c2cnn(-c3ccccn3)c2)n1)[C@@H]1CCNC1 [Compound 44, N-propyl-2-[1-(pyridin-2-yl)-1H-pyrazol-4-yl]-N-[(3R)-pyrrolidin-3-yl]-1,3-thiazole-4-carboxamide] | 10 to 30 | 
8 | CC(C)N(C(=O)c1cc(-c2cnn(-c3ccccc3)c2)c[nH]1)[C@@H]1CCNC1 [Compound 334, 4-(1-phenyl-1H-pyrazol-4-yl)-N-(propan-2-yl)-N-[(3R)-pyrrolidin-3-yl]-1H-pyrrole-2-carboxamide] | 30 to 50 | increase in acidic vesicle formation: only a slight increase
9 | CC(C)N(C(=O)c1ccc(-c2cnn(-c3ccccc3)c2)[nH]1)C1CCNCC1 [Compound 5, 5-(1-phenyl-1H-pyrazol-4-yl)-N-(piperidin-4-yl)-N-(propan-2-yl)-1H-pyrrole-2-carboxamide] | 30 to 50 | 
10 | CCCN(C(=O)c1csc(-c2cnn(-c3cccc(OC)c3)c2)n1)[C@@H]1CCNC1 [Compound 56, 2-[1-(3-methoxyphenyl)-1H-pyrazol-4-yl]-N-propyl-N-[(3R)-pyrrolidin-3-yl]-1,3-thiazole-4-carboxamide] | 10 to 30 | 
11 | CC1CCCN(C(=O)c2csc(-c3cnn(-c4ccccc4)c3)n2)C1CN (centres unmarked) [Compound 153, 1-{3-methyl-1-[2-(1-phenyl-1H-pyrazol-4-yl)-1,3-thiazole-4-carbonyl]piperidin-2-yl}methanamine] | 10 to 30 | 
12 | CCCN(C(=O)c1csc(-c2cnc(-c3ccccc3)o2)n1)C1CCNC1 (centres unmarked) [Compound 116, 2-(2-phenyl-1,3-oxazol-5-yl)-N-propyl-] | 50 to 100 | activation at 0.8 µM [2]: 50 to 100%
13 | NCCCNC(=O)c1csc(-c2cnn(-c3ccccc3)c2)n1 [Compound 159, N-(3-aminopropyl)-2-(1-phenyl-1H-pyrazol-4-yl)-1,3-thiazole-4-carboxamide] | 30 to 50 | 
14 | NC1CN(C(=O)c2csc(-c3cnn(-c4ccccc4)c3)n2)C1 [Compound 124, 1-[2-(1-phenyl-1H-pyrazol-4-yl)-1,3-thiazole-4-carbonyl]azetidin-3-amine] | 50 to 100 | activation at 0.8 µM [2]: 50 to 100%
15 | CC(C)N(C(=O)c1csc(-c2cnn(-c3ccccn3)c2)n1)C1CCNCC1 [Compound 307, N-(piperidin-4-yl)-N-(propan-2-yl)-2-[1-(pyridin-2-yl)-1H-pyrazol-4-yl]-1,3-thiazole-4-carboxamide] | 50 to 100 | 
16 | CC(C)N(C(=O)c1csc(-c2cnn(-c3ccccc3)c2)n1)C1C[C@H]2C[C@@H]1CN2 (stereo partly drawn) [Compound 316, N-[(1R,4R)-2-azabicyclo[2.2.1]heptan-5-yl]-2-(1-phenyl-1H-pyrazol-4-yl)-N-(propan-2-yl)-1,3-thiazole-4-carboxamide] | 30 to 50 | 
17 | CCCN(C(=O)c1csc(-c2cnn(-c3ccccc3C)c2)n1)[C@H]1CCNC1 [Compound 87, 2-[1-(2-methylphenyl)-1H-pyrazol-4-yl]-N-propyl-N-[(3S)-pyrrolidin-3-yl]-1,3-thiazole-4-carboxamide] | 10 to 30 | 
18 | N[C@@H]1CCCN(C(=O)c2csc(-c3cnn(-c4ccccc4)c3)n2)C1 [Compound 143, (3R)-1-[2-(1-phenyl-1H-pyrazol-4-yl)-1,3-thiazole-4-carbonyl]piperidin-3-amine] | 10 to 30 | 
19 | CCCN(C(=O)c1csc(-c2ccc(-c3ccccc3)s2)n1)[C@@H]1CCNC1 [Compound 70, 2-(5-phenylthiophen-2-yl)-N-propyl-N-[(3R)-pyrrolidin-3-yl]-1,3-thiazole-4-carboxamide] | 30 to 50 | 
20 | NCCOCCNC(=O)c1cc(-c2cnn(-c3ccccc3)c2)cs1 [Compound 110, N-[2-(2-aminoethoxy)ethyl]-4-(1-phenyl-1H-pyrazol-4-yl)thiophene-2-carboxamide] | 50 to 100 | activation at 0.8 µM [2]: 50 to 100%
21 | CCCN(C(=O)c1csc(-c2cnn(-c3ccc(OC(F)(F)F)cc3)c2)n1)[C@@H]1CCNC1 [Compound 46, N-propyl-N-[(3R)-pyrrolidin-3-yl]-2-{1-[4-(trifluoromethoxy)phenyl]-1H-pyrazol-4-yl}-1,3-thiazole-4-carboxamide] | 30 to 50 | 
22 | CCCN(C(=O)c1csc(-c2cnn(-c3ccccc3F)c2)n1)[C@H]1CCNC1 [Compound 92, 2-[1-(2-fluorophenyl)-1H-pyrazol-4-yl]-N-propyl-N-[(3S)-pyrrolidin-3-yl]-1,3-thiazole-4-carboxamide] | 50 to 100 | activation at 0.8 µM [2]: 50 to 100%
23 | CCCN(C(=O)c1csc(-c2cnn(-c3cccc(F)c3)c2)n1)[C@@H]1CCNC1 [Compound 53, 2-[1-(3-fluorophenyl)-1H-pyrazol-4-yl]-N-propyl-N-[(3R)-pyrrolidin-3-yl]-1,3-thiazole-4-carboxamide] | 10 to 30 | 
24 | CC(C)N(C(=O)c1csc(-c2cnn(-c3cccnn3)c2)n1)[C@@H]1CCNC1 [Compound 332, N-(propan-2-yl)-2-[1-(pyridazin-3-yl)-1H-pyrazol-4-yl]-N-[(3R)-pyrrolidin-3-yl]-1,3-thiazole-4-carboxamide] |  | acidic vesicle formation relative to a DMSO-treated control: only a slight increase; increase in acidic vesicle formation: only a slight increase
25 | CCCN(C(=O)c1ccc(-c2cnn(-c3ccccc3)c2)[nH]1)[C@@H]1CCNC1 [Compound 94, 5-(1-phenyl-1H-pyrazol-4-yl)-N-propyl-N-[(3R)-pyrrolidin-3-yl]-1H-pyrrole-2-carboxamide] | > 100 | activation at 0.8 µM [2]: 50 to 100%; Activity (percentage increase in acidic vesicle formation), Table 2b More preferred compounds (U2OS cells, concentration of 0.8 μM): ++++ (a percentage increase in acidic vesicle of greater than 100% over the DMSO-treated control)

From patent publication US20250049776A1, “AUTOPHAGY INDUCING COMPOUNDS AND USES THEREOF, IN PARTICULAR FOR A SYSTEMIC TREATMENT OF DISEASES AND CONDITIONS” (Samsara Therapeutics Inc., priority 2021, published 2025)
